Assay results taken from ChEMBL document CHEMBL5500344, “Design, synthesis and biological evaluation of matrine contains benzimidazole derivatives as dual TOPOI and PARP inhibitors for cancer therapy” (Eur J Med Chem, 2024).
The source made the active and inactive calls. The calls are words filed in the database; no cut-off is given here.

Legend:
HGC-27 [1] = assay: Induction of apoptosis in human HGC-27 cells assessed as viable cells at 5 uM incubated for 24 hrs by annexin V-FITC/PI satining based flow cytometry (reference value: 95.3 %); format: functional; conditions: read-out: Activity
HGC-27 [2] = assay: Induction of apoptosis in human HGC-27 cells assessed as viable cells at 2.5 uM incubated for 24 hrs by annexin V-FITC/PI satining based flow cytometry (reference value: 95.3 %); format: functional; conditions: read-out: Activity
HGC-27 [3] = assay: Antiproliferative activity against human HGC-27 cells assessed as inhibition of cell growth incubated for 48 hrs by MTT assay; format: functional, cell-based; conditions: HGC-27, 48 h, read-out: IC50
HGC-27 [4] = assay: Induction of DNA damage in human HGC-27 cells assessed as upregulation of p53 phoshorylation incubated for 48 hrs by Western blotting analysis; format: functional, cell-based
HGC-27 [5] = assay: Induction of apoptosis in human HGC-27 cells assessed as necrotic cells at 2.5 uM incubated for 24 hrs by annexin V-FITC/PI satining based flow cytometry (reference value: 0.13 %); format: functional
HGC-27 [6] = assay: Induction of apoptosis in human HGC-27 cells assessed as downregulation of PARP expression incubated for 48 hrs by Western blotting analysis; format: functional, cell-based
HGC-27 [7] = assay: Induction of apoptosis in human HGC-27 cells assessed as upregulation of Bax expression incubated for 48 hrs by Western blotting analysis; format: functional, cell-based
HGC-27 [8] = assay: Induction of DNA damage in human HGC-27 cells assessed as upregulation of gamma-H2AX expression incubated for 48 hrs by Western blotting analysis; format: functional, cell-based
HGC-27 [9] = assay: Induction of apoptosis in human HGC-27 cells assessed as necrotic cells at 5 uM incubated for 24 hrs by annexin V-FITC/PI satining based flow cytometry (reference value: 0.13 %); format: functional
HGC-27 [10] = assay: Induction of apoptosis in human HGC-27 cells assessed as necrotic cells at 1.25 uM incubated for 24 hrs by annexin V-FITC/PI satining based flow cytometry (reference value: 0.13 %); format: functional
A549 = assay: Antiproliferative activity against human A549 cells assessed as inhibition of cell growth incubated for 48 hrs by MTT assay; format: functional, cell-based; conditions: A549, 48 h
HGC-27 [11] = assay: Inhibition of cell migration in human HGC-27 cells incubated upto 72 hrs by scratch wound healing based microscopic analysis; format: functional
HGC-27 [12] = assay: Inhibition of colony formation in human HGC-27 cells incubated for 48 hrs by crystal violet staining based microscopic analysis; format: functional, cell-based
[13] = target: Poly [ADP-ribose] polymerase 1 (Homo sapiens, UniProt P09874); assay: Inhibition of PARP-1 (unknown origin) incubated for 70 mins by HT universal chemiluminescent assay
HGC-27 [14] = assay: Induction of apoptosis in human HGC-27 cells assessed as late apoptotic cells at 2.5 uM incubated for 24 hrs by annexin V-FITC/PI satining based flow cytometry (reference value: 0.32 %); format: functional
HGC-27 [15] = assay: Induction of apoptosis in human HGC-27 cells assessed as late apoptotic cells at 1.25 uM incubated for 24 hrs by annexin V-FITC/PI satining based flow cytometry (reference value: 0.32 %); format: functional
HGC-27 [16] = assay: Induction of apoptosis in human HGC-27 cells assessed as late apoptotic cells at 5 uM incubated for 24 hrs by annexin V-FITC/PI satining based flow cytometry (reference value: 0.32 %); format: functional
HGC-27 [17] = assay: Induction of apoptosis in human HGC-27 cells assessed as downregulation of Bcl-2 expression incubated for 48 hrs by Western blotting analysis; format: functional, cell-based
L02 = assay: Antiproliferative activity against human L02 cells assessed as inhibition of cell growth incubated for 48 hrs by MTT assay; format: functional, cell-based; conditions: L02, 48 h
HGC-27 [18] = assay: Induction of DNA damage in human HGC-27 cells assessed as upregulation of p53 expression incubated for 48 hrs by Western blotting analysis; format: functional, cell-based
[19] = target: T1, DNA topoisomerase 1 (Homo sapiens) (UniProt P11387); assay: Inhibition of human topoisomerase 1 assessed as relaxation of supercoiled pBR322 plasmid DNA incubated for 10 to 15 mins by EtBr staining based agarose gel electrophoresis method; conditions: time 10-15 min
T1 sequence (whole entry): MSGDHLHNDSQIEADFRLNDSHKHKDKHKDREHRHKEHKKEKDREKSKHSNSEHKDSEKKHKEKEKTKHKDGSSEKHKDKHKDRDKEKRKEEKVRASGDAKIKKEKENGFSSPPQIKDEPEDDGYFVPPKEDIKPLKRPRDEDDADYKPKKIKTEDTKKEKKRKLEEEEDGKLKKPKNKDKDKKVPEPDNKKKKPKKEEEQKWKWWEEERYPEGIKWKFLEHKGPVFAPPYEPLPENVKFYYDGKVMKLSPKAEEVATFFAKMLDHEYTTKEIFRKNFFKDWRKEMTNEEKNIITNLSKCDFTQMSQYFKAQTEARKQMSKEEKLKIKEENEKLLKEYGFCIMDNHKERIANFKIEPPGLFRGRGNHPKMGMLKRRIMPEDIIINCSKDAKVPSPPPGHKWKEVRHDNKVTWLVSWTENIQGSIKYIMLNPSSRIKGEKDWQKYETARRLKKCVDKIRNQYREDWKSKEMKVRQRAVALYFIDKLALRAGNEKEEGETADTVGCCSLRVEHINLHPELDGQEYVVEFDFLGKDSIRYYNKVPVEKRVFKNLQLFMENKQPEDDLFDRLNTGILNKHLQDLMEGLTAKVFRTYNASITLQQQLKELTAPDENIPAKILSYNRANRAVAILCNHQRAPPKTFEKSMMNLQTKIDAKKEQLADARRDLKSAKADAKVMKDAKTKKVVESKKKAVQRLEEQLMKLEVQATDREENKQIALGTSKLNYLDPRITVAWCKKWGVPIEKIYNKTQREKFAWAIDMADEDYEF

HGC-27 [20] = assay: Induction of apoptosis in human HGC-27 cells assessed as early apoptotic cells at 2.5 uM incubated for 24 hrs by annexin V-FITC/PI satining based flow cytometry (reference value: 4.2 %); format: functional
HGC-27 [21] = assay: Induction of apoptosis in human HGC-27 cells at 5 uM incubated for 24 hrs by annexin V-FITC/PI satining based flow cytometry relative to control; format: functional
HGC-27 [22] = assay: Induction of apoptosis in human HGC-27 cells assessed as early apoptotic cells at 1.25 uM incubated for 24 hrs by annexin V-FITC/PI satining based flow cytometry (reference value: 4.2 %); format: functional
HepG2 = assay: Antiproliferative activity against human HepG2 cells assessed as inhibition of cell growth incubated for 48 hrs by MTT assay; format: functional, cell-based; conditions: HepG2, 48 h
HGC-27 [23] = assay: Induction of apoptosis in human HGC-27 cells assessed as upregulation of cleaved PARP expression incubated for 48 hrs by Western blotting analysis; format: functional, cell-based
HGC-27 [24] = assay: Induction of apoptosis in human HGC-27 cells assessed as upregulation of caspase-3 expression incubated for 48 hrs by Western blotting analysis; format: functional, cell-based
HGC-27 [25] = assay: Induction of cell cycle arrest in human HGC-27 cells assessed as accumulation of cells at G0/G1 phase at 2.5 uM incubated for 48 hrs by flow cytometry relative to control; format: functional
HGC-27 [26] = assay: Induction of apoptosis in human HGC-27 cells assessed as early apoptotic cells at 5 uM incubated for 24 hrs by annexin V-FITC/PI satining based flow cytometry (reference value: 4.2 %); format: functional
HGC-27 [27] = assay: Induction of cell cycle arrest in human HGC-27 cells assessed as accumulation of cells at G0/G1 phase at 1.25 uM incubated for 48 hrs by flow cytometry relative to control; format: functional
HGC-27 [28] = assay: Antitumor activity against human HGC-27 cells xenografted in BALB/c mouse assessed as tumor growth inhibition at 40 mg/kg,ip administrated every other day for 17 days relative to control; format: functional; conditions: HGC-27, 408 h, time 17 day, read-out: TGI
HGC-27 [29] = assay: Induction of apoptosis in human HGC-27 cells assessed as viable cells at 1.25 uM incubated for 24 hrs by annexin V-FITC/PI satining based flow cytometry (reference value: 95.3 %); format: functional; conditions: read-out: Activity
HGC-27 [30] = assay: Induction of cell cycle arrest in human HGC-27 cells assessed as accumulation of cells at G0/G1 phase at 5 uM incubated for 48 hrs by flow cytometry relative to control; format: functional
HGC-27 [31] = assay: Induction of apoptosis in human HGC-27 cells assessed as upregulation of cleaved caspase-3 expression incubated for 48 hrs by Western blotting analysis; format: functional, cell-based
HGC-27 [32] = assay: Induction of apoptosis in human HGC-27 cells at 2.5 uM incubated for 24 hrs by annexin V-FITC/PI satining based flow cytometry relative to control; format: functional
HGC-27 [33] = assay: Induction of apoptosis in human HGC-27 cells at 1.25 uM incubated for 24 hrs by annexin V-FITC/PI satining based flow cytometry relative to control; format: functional
HeLa = assay: Antiproliferative activity against human HeLa cells assessed as inhibition of cell growth incubated for 48 hrs by MTT assay; format: functional, cell-based
[34] = Acute toxicity in BALB/c mouse xenografted with human HGC-27 cells assessed as change in body weight at 40 mg/kg,ip administrated every other day for 17 days; format: organism-based; conditions: in vivo, 408 h, time 17 day
[35] = Acute toxicity in BALB/c mouse xenografted with human HGC-27 cells assessed as venous congestion in liver at 40 mg/kg,ip administrated every other day for 17 days by hematoxylin and eosin staining method; format: organism-based; conditions: in vivo, 408 h, time 17 day
[36] = Acute toxicity in BALB/c mouse xenografted with human HGC-27 cells assessed as venous congestion in spleen at 40 mg/kg,ip administrated every other day for 17 days by hematoxylin and eosin staining method; format: organism-based; conditions: in vivo, 408 h, time 17 day
[37] = target: T1, DNA topoisomerase 1 (Homo sapiens); assay: Inhibition of human topoisomerase 1 assessed as relaxation of supercoiled pBR322 plasmid DNA at 100 uM incubated for 10 to 15 mins by EtBr staining based agarose gel electrophoresis method; conditions: time 10-15 min

Sequence of Poly [ADP-ribose] polymerase 1 (P09874 whole entry): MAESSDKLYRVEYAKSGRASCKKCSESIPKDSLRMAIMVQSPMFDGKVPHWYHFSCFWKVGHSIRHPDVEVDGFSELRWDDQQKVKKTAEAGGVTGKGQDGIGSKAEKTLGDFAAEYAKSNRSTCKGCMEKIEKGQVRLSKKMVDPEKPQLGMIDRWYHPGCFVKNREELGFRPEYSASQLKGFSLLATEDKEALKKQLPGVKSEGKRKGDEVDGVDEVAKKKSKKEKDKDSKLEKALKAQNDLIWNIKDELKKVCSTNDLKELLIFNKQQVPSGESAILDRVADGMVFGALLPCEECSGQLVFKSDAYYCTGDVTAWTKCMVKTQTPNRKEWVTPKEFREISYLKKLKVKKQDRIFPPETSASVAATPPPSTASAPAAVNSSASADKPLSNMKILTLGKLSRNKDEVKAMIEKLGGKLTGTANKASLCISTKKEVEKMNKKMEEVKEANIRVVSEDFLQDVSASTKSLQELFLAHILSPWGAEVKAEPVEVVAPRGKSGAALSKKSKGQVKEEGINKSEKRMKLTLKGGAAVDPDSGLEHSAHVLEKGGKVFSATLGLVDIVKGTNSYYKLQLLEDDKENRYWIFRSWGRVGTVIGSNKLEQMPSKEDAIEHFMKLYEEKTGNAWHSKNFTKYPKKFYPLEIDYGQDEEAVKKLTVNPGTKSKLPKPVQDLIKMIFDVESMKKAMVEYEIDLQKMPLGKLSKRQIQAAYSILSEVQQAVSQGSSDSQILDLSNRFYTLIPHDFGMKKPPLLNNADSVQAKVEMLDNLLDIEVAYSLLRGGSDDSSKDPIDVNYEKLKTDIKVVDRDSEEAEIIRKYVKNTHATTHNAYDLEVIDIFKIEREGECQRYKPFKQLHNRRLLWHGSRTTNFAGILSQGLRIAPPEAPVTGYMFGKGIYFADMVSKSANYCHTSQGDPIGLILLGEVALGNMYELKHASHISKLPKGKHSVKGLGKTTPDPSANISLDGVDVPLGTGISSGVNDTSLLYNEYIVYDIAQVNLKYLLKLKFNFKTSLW

O=C(OCC1c2ccccc2-c2ccccc21)N1C[C@@H]2CCCN3CCC[C@@H]([C@H]23)[C@H]1CCCc1nc2cc(Br)c(Br)cc2[nH]1 gave a viability at 5 µM (HGC-27 [1]) of 18.1%, a viability at 2.5 µM (HGC-27 [2]) of 51.7% and an IC50 (HGC-27 [3]) of 2.49 µM. For the same molecule, the Activity (HGC-27 [4]) was “Dose-Dependent Effect”, the Activity (HGC-27 [5]) was 0.6% and the Activity (HGC-27 [6]) was “Dose-Dependent Effect”. For the same molecule, the Activity (HGC-27 [7]) was “Dose-Dependent Effect”, the Activity (HGC-27 [8]) was “Dose-Dependent Effect” and the Activity (HGC-27 [9]) was 1.42%. For the same molecule, the Activity (HGC-27 [10]) was 0.37%, the IC50 (A549) was 9.48 µM and the inhibition (HGC-27 [11]) was “Dose-Dependent Effect”. The inhibition (HGC-27 [12]) was “Dose-Dependent Effect”, the IC50 [13] was 0.09 µM and the Activity (HGC-27 [14]) was 7%. For the same molecule, the Activity (HGC-27 [15]) was 1.79%, the Activity (HGC-27 [16]) was 8.01% and the Activity (HGC-27 [17]) was “Dose-Dependent Effect”. For the same molecule, the IC50 (L02) was > 64 µM, the Activity (HGC-27 [18]) was “Dose-Dependent Effect” and the inhibition [19] was “Dose-Dependent Effect”. The Activity (HGC-27 [20]) was 40.6%, the Activity (HGC-27 [21]) was 76% and the Activity (HGC-27 [22]) was 17.2%. For the same molecule, the IC50 (HepG2) was 3.8 µM, the Activity (HGC-27 [23]) was “Dose-Dependent Effect” and the Activity (HGC-27 [24]) was “Dose-Dependent Effect”. It also gave an Activity (HGC-27 [25]) of 70%, an Activity (HGC-27 [26]) of 72.5% and an Activity (HGC-27 [27]) of 66%. The inhibition in vivo at 40 mg/kg (HGC-27 [28]) was 75.4%, the viability at 1.25 µM (HGC-27 [29]) was 80.7% and the Activity (HGC-27 [30]) was 74%. For the same molecule, the Activity (HGC-27 [31]) was “Dose-Dependent Effect”, the Activity (HGC-27 [32]) was 43.1% and the Activity (HGC-27 [33]) was 15.5%. For the same molecule, the IC50 (HeLa) was 7.21 µM and the Activity [34] was “Toxic”.
In the case of O=C1CCC[C@@H]2[C@H]3CCCN4CCC[C@@H](CN12)[C@@H]34 [MATRINE], the Activity [35] is reported as “Toxic”, the IC50 (HGC-27 [3]) is reported as 4180 µM and the IC50 (A549) is reported as 5880 µM. The Activity [36] was “Toxic”, the IC50 (HepG2) was 4360 µM and the inhibition in vivo at 40 mg/kg (HGC-27 [28]) was 9.7%. The IC50 (HeLa) was 6750 µM and the Activity [34] was “Toxic”.
O=C(CCC[C@@H]1[C@H]2CCCN3CCC[C@@H](CN1C(=O)OCC1c4ccccc4-c4ccccc41)[C@@H]23)Nc1nc2ccccc2[nH]1 showed an IC50 (HGC-27 [3]) of 7.38 µM, an IC50 (A549) of 12.3 µM and an IC50 [13] of 2.58 µM. The IC50 (L02) was > 64 µM, the inhibition [37] was “Active” and the IC50 (HepG2) was 6.45 µM. It also gave an IC50 (HeLa) of 16.1 µM.
With O=C(OCC1c2ccccc2-c2ccccc21)N1C[C@@H]2CCCN3CCC[C@@H]([C@H]23)[C@H]1CCCc1nc2cc(Cl)c(Cl)cc2[nH]1 the IC50 (HGC-27 [3]) was 9.78 µM, the IC50 (A549) was 13.2 µM and the IC50 [13] was 0.28 µM. For the same molecule, the IC50 (L02) was > 64 µM, the inhibition [37] was “Active” and the IC50 (HepG2) was 10.8 µM. For the same molecule, the IC50 (HeLa) was 8.46 µM.
